Laboratory results published in ChEMBL document CHEMBL6127159, “A Bifunctional Sulfide Donor Approach for Ischemic Stroke: Leveraging Butylphthalide as a Carrier for Sulfide Prodrug” (J Med Chem, 2024).
The source made the active and inactive calls. The rule behind the calls is not given here.

Experiments:
Mus musculus [1] = assay: Induction of iron-sulfur cluster related genes transcriptional level in MCAO induced C57BL/6J mouse at 100 umol/kg measured after 24 hrs; type: functional, organism-based; conditions: dose 100.0 µmol/kg
[2] = Drug concentration in Sprague-Dawley rat plasma at 80 umol/kg, iv measured after 1 min by LC-MS/MS analysis; type: ADME, organism-based; conditions: dose 80 µmol/kg
Mus musculus [3] = assay: Neuroprotective activity against MCAO induced C57BL/6J mouse assessed as reduction in infarct area at 100 umol/kg measured after 24 hrs by TTC staining based analysis; type: functional; set-up: scale not given: the % may be the effect or the level left; conditions: dose 100 µmol/kg
[4] = Cytotoxicity against […] PC12 cells upto 500 uM; type: toxicity, cell-based; conditions: pc12, 500 µM
[5] = Drug metabolism in Sprague-Dawley rat plasma assessed as 2-(1-acetoxypentyl)benzoic acid level at 80 umol/kg, iv measured after 1 min by LC-MS/MS analysis; type: ADME, organism-based; conditions: in vivo, dose 80 µmol/kg
Liver carboxylesterase [6] = target: T1, Liver carboxylesterase (Sus scrofa, UniProt Q29550); assay: Drug metabolism in PBS assessed as porcine liver esterase mediated compound hydrolysis by measuring half life at 500 uM by UPLC method; type: ADME; conditions: pig
T1 sequence (Q29550 whole entry): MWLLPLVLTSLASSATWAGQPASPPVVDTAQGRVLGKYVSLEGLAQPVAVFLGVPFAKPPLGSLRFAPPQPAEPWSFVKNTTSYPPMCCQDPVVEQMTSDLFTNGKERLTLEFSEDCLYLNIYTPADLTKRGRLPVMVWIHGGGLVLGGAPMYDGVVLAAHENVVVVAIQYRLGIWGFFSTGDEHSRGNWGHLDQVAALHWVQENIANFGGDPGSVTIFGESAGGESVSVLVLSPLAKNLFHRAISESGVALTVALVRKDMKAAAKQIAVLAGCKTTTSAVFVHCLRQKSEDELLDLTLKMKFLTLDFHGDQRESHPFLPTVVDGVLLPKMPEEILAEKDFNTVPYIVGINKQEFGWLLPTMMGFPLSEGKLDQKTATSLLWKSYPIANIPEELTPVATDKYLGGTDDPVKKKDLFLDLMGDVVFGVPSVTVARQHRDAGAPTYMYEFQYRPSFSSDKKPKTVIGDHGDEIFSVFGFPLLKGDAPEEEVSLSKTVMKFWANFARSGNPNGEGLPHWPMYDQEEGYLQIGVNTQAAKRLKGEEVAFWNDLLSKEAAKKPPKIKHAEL

[7] = Downregulation of MDA level in MCAO induced C57BL/6J mouse at 100 umol/kg measured after 24 hrs (reference value: 15.1 +/- 0.5 nmol/mg); type: functional; conditions: dose 100 µmol/kg
[8] = Drug metabolism in Sprague-Dawley rat assessed as Sodium 2-(1-acetoxypentyl)benzothioate level at 80 umol/kg, iv measured after 1 min by LC-MS/MS analysis; type: ADME, organism-based; conditions: in vivo, dose 80 µmol/kg
cells = type: functional, PC12; conditions: Homo sapiens, PC-12
[9] = Drug metabolism in Sprague-Dawley rat plasma assessed as 3-butylisobenzofuran-1(3H)-thione level at 80 umol/kg, iv measured after 1 min by LC-MS/MS analysis; type: ADME, organism-based; conditions: in vivo, dose 80 µmol/kg
[10] = Drug concentration in Sprague-Dawley rat at 80 umol/kg, iv measured after 1 min by LC-MS/MS analysis; type: ADME, organism-based; conditions: in vivo
[11] = Drug metabolism in Sprague-Dawley rat assessed as 3-butylisobenzofuran-1(3H)-one level at 80 umol/kg, iv measured after 1 min by LC-MS/MS analysis; type: ADME, organism-based; conditions: in vivo, dose 80 µmol/kg
[12] = Drug metabolism in Sprague-Dawley rat assessed as Sodium 2-(1-((3-methylbutanoyl)oxy)pentyl)benzothioate level at 80 umol/kg, iv measured after 1 min by LC-MS/MS analysis; type: ADME, organism-based; conditions: in vivo, dose 80 µmol/kg
Liver carboxylesterase [13] = target: T1, Liver carboxylesterase; assay: Drug metabolism in PBS assessed as porcine liver esterase mediated H2S release at 500 uM by methylene blue assay; type: ADME; conditions: pig, isolated protein
Mus musculus [14] = organism: Mus musculus; assay: Neuroprotective activity against MCAO induced C57BL/6J mouse cerebral ischemia model assessed as appearance of high density nissl bodies in thalamic region; type: functional, organism-based
Mus musculus [15] = organism: Mus musculus; assay: Neuroprotective activity against MCAO induced C57BL/6J mouse cerebral ischemia model assessed as upregulation of genes related to neuroprotection by GSEA; type: functional, organism-based
Mus musculus [16] = assay: Induction of iron-sulfur cluster related genes transcriptional level in MCAO induced C57BL/6J mouse at 100 umol/kg measured after 24 hrs by GSEA; type: functional, organism-based; conditions: dose 100.0 µmol/kg
Mus musculus [17] = organism: Mus musculus; assay: Neuroprotective activity against MCAO induced C57BL/6J mouse cerebral ischemia model assessed as NeuN expression by immunofluorescence assay; type: functional, organism-based
Mus musculus [18] = organism: Mus musculus; assay: Neuroprotective activity against MCAO induced C57BL/6J mouse cerebral ischemia model assessed as appearance of high density nissl bodies in hippocampal region; type: functional, organism-based
PC12 = assay: Neuroprotective activity against ischemia/hypoxia induced cell injury in […] PC12 cells assessed as increase in cell viability at 10 to 20 uM by MTT assay; type: functional, cell-based; conditions: dose 10-20 µM
Mus musculus [19] = assay: Downregulation of oxidative stress related genes expression in MCAO induced C57BL/6J mouse at 100 umol/kg measured after 24 hrs by GSEA; type: functional, organism-based; conditions: dose 100.0 µmol/kg
Mus musculus [20] = organism: Mus musculus; assay: Neuroprotective activity against MCAO induced C57BL/6J mouse cerebral ischemia model assessed as reduction in nuclear leakage; type: functional, organism-based
Mus musculus [21] = organism: Mus musculus; assay: Neuroprotective activity against MCAO induced C57BL/6J mouse cerebral ischemia model assessed as cleaved caspase-3 expression by immunofluorescence assay; type: functional, organism-based
Mus musculus [22] = assay: Downregulation of abnormal ion channel activation related genes expression in MCAO induced C57BL/6J mouse at 100 umol/kg measured after 24 hrs by GSEA; type: functional; conditions: dose 100.0 µmol/kg
Mus musculus [23] = organism: Mus musculus; assay: Neuroprotective activity against MCAO induced C57BL/6J mouse cerebral ischemia model assessed as upregulation of genes related to dopaminergic neuron differentiation by GSEA; type: functional, organism-based

## CCCCC(OC(C)=O)c1ccccc1C(=O)SSCC(NC(C)=O)C(=O)O (stereo not given)
Mus musculus [1]
  Activity: inactive
[2]
  concentration at 1 min: 151 µg/mL
Mus musculus [3]
  Activity: 20.6%
[4]
  Activity: Non-Toxic
[5]
  Drug metabolism: 44.4 µg/mL
Liver carboxylesterase [6]
  half-life at 500 µM: 2.98 h
[7]
  Activity: 9.9 nmol/mg
[8]
  Drug metabolism: 105.9 µg/mL
cells
  viability at 10 µM: 86.2%
[9]
  Drug metabolism: 34.4 µg/mL

## CCCCC(OC(=O)CC)c1ccccc1C(=O)SSCC(NC(C)=O)C(=O)[O-].[Na+] (stereo not given)
Liver carboxylesterase [6]
  half-life at 500 µM: 0.333 h

## CCCCC(OC(=O)C(C)C)c1ccccc1C(=O)[S-].[Na+] (stereo not given)
Liver carboxylesterase [6]
  half-life at 500 µM: 15 h

## CCCCC(OC(C)=O)c1ccccc1C(=O)O (stereo not given)
Mus musculus [3]
  Activity: 20.6%
[7]
  Activity: 9.4 nmol/mg
cells
  viability at 10 µM: 86.4%

## CCCCC(OC(=O)C(C)C)c1ccccc1C(=O)SSCC(NC(C)=O)C(=O)[O-].[Na+] (stereo not given)
Liver carboxylesterase [6]
  half-life at 500 µM: 0.225 h

## CCCCC1OC(=S)c2ccccc21 (stereo not given)
[10]; Sprague-Dawley, 80 umol/kg, read-out: Drug uptake
  concentration at 1 min: 7.5 µg/mL
[11]
  Drug metabolism: 1.2 µg/mL

## CCCCC(OC(=O)CC(C)C)c1ccccc1C(=O)SSCC(NC(C)=O)C(=O)[O-].[Na+] (stereo not given)
[10]; iv, 1 min, dose 80 µmol/kg
  Drug uptake: Not Active
[5]
  Drug metabolism: 41 µg/mL
Liver carboxylesterase [6]
  half-life at 500 µM: 0.22 h
[12]
  Drug metabolism: 201.1 µg/mL

## CCCCC(OC(C)=O)c1ccccc1C(=O)[S-].[Na+] (stereo not given)
Liver carboxylesterase [13]
  Drug metabolism: 2.8 µM
Mus musculus [14]
  Activity: Active
Mus musculus [15]
  Activity: Active
Mus musculus [16]
  Activity: Active
Mus musculus [17]
  Activity: Active
Mus musculus [1]
  Activity: Active
Mus musculus [18]
  Activity: Active
[2]
  concentration at 1 min: 216 µg/mL
PC12
  Activity: Active
Mus musculus [3]
  Activity: 13.8%
Mus musculus [19]
  Activity: Active
[4]
  Activity: Non-Toxic
Mus musculus [20]
  Activity: Active
[5]
  Drug metabolism: 23.6 µg/mL
Liver carboxylesterase [6]
  half-life at 500 µM: 23.3 h
[7]
  Activity: 6.3 nmol/mg
Mus musculus [21]
  Activity: Active
Mus musculus [22]
  Activity: Active
cells
  viability at 10 µM: 92.5%
[9]
  Drug metabolism: 35.5 µg/mL
Mus musculus [23]
  Activity: Active

## CCCCC(OC(=O)CC(C)C)c1ccccc1C(=O)[S-].[Na+] (stereo not given)
Liver carboxylesterase [13]
  Drug metabolism: 31 µM
Liver carboxylesterase [6]
  half-life at 500 µM: 6.42 h
